Test results reported in paper PMC11876671, “Investigating blood–brain barrier penetration and neurotoxicity of natural products for central nervous system drug development” (Scientific Reports, 2025).
Where a name gives a salt, the structure may show the parent alone.

experiment: in vitro; settings: PAMPA, PAMPA-BBB Pe

Structure (SMILES) | Papp
CCOC(=O)c1ccc(N)cc1 [BENZOCAINE] | 99 ×10⁻⁶ cm/s

same assay, conditions: PAMPA, PAMPA-BBB Pe(10^-6 cm/sec)

Structure (SMILES) | Papp
CC1=C(/C=C/C(C)=C/C=C/C(C)=C\C(=O)O)C(C)(C)CCC1 [ISOTRETINOIN] | 8.7 ×10⁻⁶ cm/s
O=C(O)c1cccnc1 [NICOTINIC ACID] | < 1 ×10⁻⁶ cm/s
O=c1cccc2n1C[C@@H]1CNC[C@H]2C1 [CYTISINE] | < 1 ×10⁻⁶ cm/s
CNc1ccccc1C(=O)O | 1.5 ×10⁻⁶ cm/s
O=C(O)c1cccc(C(=O)O)n1 [D[…]] | < 1 ×10⁻⁶ cm/s

same assay, conditions: PAMPA, PAMPA-BBB Pe(10^-6 cm/sec), Table S3: compounds exhibiting low PAMPA-BBB permeability

Structure (SMILES) | Papp
CC(=O)O[C@@H]1C[C@H]2C(C)(C)C(=O)C=C[C@]2(C)[C@H]2CC[C@@]3(C)[C@H](c4ccoc4)OC(=O)[C@H]4O[C@]43[C@@]21C [GEDUNIN] | < 1 ×10⁻⁶ cm/s
O=c1ccn([C@H]2C[C@H](O)[C@@H](CO)O2)c(=O)[nH]1 [DEOXYURIDINE] | < 1 ×10⁻⁶ cm/s
CN1C(=O)CC[C@H]1c1cccnc1 [COTININE] | < 1 ×10⁻⁶ cm/s
NCCc1c[nH]c2ccc(O)cc12 [SEROTONIN HYDROCHLORIDE] | < 1 ×10⁻⁶ cm/s
CO[C@H]1/C=C/O[C@@]2(C)Oc3c(C)c(O)c4c(O)c(cc(O)c4c3C2=O)NC(=O)/C(C)=C\C=C\[C@H](C)[C@H](O)[C@@H](C)[C@@H](O)[C@@H](C)[C@H](OC(C)=O)[C@@H]1C [RIFAMYCIN] | < 1 ×10⁻⁶ cm/s
O=C(C[C@H]1NCCC[C@@H]1O)Cn1cnc2ccccc2c1=O [FEBRIFUGINE] | < 1 ×10⁻⁶ cm/s
COc1ccc2cc1Oc1ccc(cc1)C[C@H]1c3c(cc4c(c3Oc3cc5c(cc3OC)CCN(C)[C@@H]5C2)OCO4)CCN1C [CEPHARANTHINE] | < 1 ×10⁻⁶ cm/s
O=C(O)c1ccc(O)c(O)c1 [PROT[…]] | < 1 ×10⁻⁶ cm/s
COC(=O)c1ccc(O)c2nc3c(C=O)c(O)cc(O)c3nc12 [LOMOFUNGIN] | 5.1 ×10⁻⁶ cm/s
C=CC(C)=CCC=C(C)C [CIS BETA OCIMENE] | 3.9 ×10⁻⁶ cm/s
CO[C@H]1[C@@H](O)[C@@H](C)O[C@H](O[C@H]2[C@H](Oc3cccc4c(O)c5c(=O)oc6ccc(C)c7c(=O)oc(c34)c5c67)O[C@H](C)[C@H](O)[C@@H]2O)[C@@H]1O [CHARTREUSIN] | 4 ×10⁻⁶ cm/s
O=[N+]([O-])c1ncc[nH]1 [AZOMYCIN] | < 1 ×10⁻⁶ cm/s
COc1cc2c(CCNC(C)=O)c[nH]c2cc1O [6-HYDROXYMELATONIN] | 2.8 ×10⁻⁶ cm/s
O=C(OC[C@H]1O[C@@H](OC(=O)c2cc(O)c(O)c(O)c2)[C@H](OC(=O)c2cc(O)c(O)c(O)c2)[C@@H](OC(=O)c2cc(O)c(O)c(O)c2)[C@@H]1O)c1cc(O)c(O)c(O)c1 [1,2,3,6-TETRA-O-GALLOYL-.BETA.-D-GLUCOSE] | < 1 ×10⁻⁶ cm/s
c1cncc([C@@H]2CCCCN2)c1 [ANABASINE] | 3.4 ×10⁻⁶ cm/s
O=C(CCc1ccc(O)cc1)c1c(O)cc(O)cc1O[C@@H]1O[C@H](CO)[C@@H](O)[C@H](O)[C@H]1O [PHLORIDZIN] | 1.4 ×10⁻⁶ cm/s
Nc1ccn([C@@H]2O[C@H](CO)[C@@H](OP(=O)(O)O)[C@H]2O)c(=O)n1 [3'-CMP] | < 1 ×10⁻⁶ cm/s

same assay, conditions: PAMPA, PAMPA-BBB Pe, Table S2: compounds exhibiting moderate to high PAMPA-BBB permeability

Structure (SMILES) | Papp
O=c1cc(N2CCOCC2)oc2c(-c3cccc4c3sc3ccccc34)cccc12 | 102 ×10⁻⁶ cm/s
COc1ccc(-c2oc3cc(OC)c(OC)c(OC)c3c(=O)c2OC)cc1OC | 120 ×10⁻⁶ cm/s
CN1CC[C@]23c4ccccc4N[C@H]1[C@]21CCN(C)[C@H]3Nc2ccccc21 [[…]] | 23 ×10⁻⁶ cm/s
C=C(C)c1cc2cc(C(C)=O)c(O)cc2o1 [EUPARIN] | 125 ×10⁻⁶ cm/s
CC(=O)/C=C/C1C(C)=CCC(C)C1(C)C (mixture of isomers) [DL-TRANS-.ALPHA.-IRONE] | 34 ×10⁻⁶ cm/s
O=C1NC(=O)C(c2c[nH]c3ccccc23)=C1c1c[nH]c2ccccc12 [BISINDOLYLMALEIMIDE] | > 654 ×10⁻⁶ cm/s
COc1ccc(Cc2nccc3cc(OC)c(OC)cc23)cc1OC [PAPAVERINE HYDROCHLORIDE] | 165 ×10⁻⁶ cm/s
CCC12C=CCN3CC[C@@]4(c5ccc(OC)cc5N(C)[C@H]4[C@@](O)(C(=O)OC)[C@@H]1OC(C)=O)[C@@H]32 (some centres unmarked) [VINDOLINE] | 92 ×10⁻⁶ cm/s
COc1ccc(C(C)=O)c(O)c1 [PAEONOL] | 146 ×10⁻⁶ cm/s
COc1ccc2c(c1O)-c1c(OC)c(OC)cc3c1[C@H](C2)N(C)CC3 [ISOCORYDINE] | 74 ×10⁻⁶ cm/s
COc1cc(OC)c(OC)cc1C=O [GAZARIN] | 64 ×10⁻⁶ cm/s
Cn1c2cccc(=O)c-2nc2ccccc21 [PYOCYANINE] | 299 ×10⁻⁶ cm/s
